Data reported in paper PMC9081329, “Pharmacokinetics, Mass Balance, Excretion, and Tissue Distribution of Plasmalogen Precursor PPI-1011” (Frontiers in Cell and Developmental Biology, 2022).

Assay: Single dose tissue distribution study (QWBA, LSC of blood and plasma)
Type: in vivo, Sprague-Dawley rats
Protocol: Six male rats were administered a single oral dose of [^14C]PPI-1011 at 100 mg/kg (200 μCi/kg) and one rat was sacrificed at each of the following time points after the administration of the dose: 8, 12, 18, 24, 48, or 168 h. Terminal blood was collected by cardiac puncture directly into tubes with K2EDTA, an aliquot was stored at 4°C until LSC was performed for radioactivity, while the remaining blood was processed to plasma and stored at −20°C until LSC. Following blood collection, the carcasses were frozen in a cold bath with hexanes and dry ice for at least 8 min and then dried and stored at −70°C for at least 5 h. The carcasses were transferred to a −20°C freezer for at least 12 h before embedding.
QWBA was used to determine radioactivity concentrations in the caecum (contents and mucosa), large intestine (contents and mucosa), small intestine (contents and mucosa), stomach (contents and mucosa), brain, choroid plexus, spinal cord, bone, skin, adrenal gland, pineal body, pituitary gland, thyroid gland, liver, kidney (cortex, medulla and whole kidney), urinary bladder (contents and wall), brown fat, white fat, eye (lens, uveal tract and whole eye), epididymis, prostate gland, testis, ovary, uterus, lung, exorbital lachrymal gland, Harderian gland, pancreas, salivary gland, skeletal muscle, myocardium, cardiac blood, bone marrow, lymph node, spleen, and thymus. As well, LSC was used to determine the total radioactivity in the whole blood and plasma.
The whole-body cryosectioning technique described by ([Ullberg, 1977]) was the basis for embedding and cryosectioning the rats assigned to this study. Each frozen carcass was shaved, and then the limbs and tail were removed prior to embedding. Chilled (4°C) 3% CMC (low viscosity) was utilized to provide a firm support of reinforced ice around each rat and for a secure attachment to the microtome stage. Upon thorough freezing of the embedding medium surrounding each rat, the frozen CMC block was removed from the freezing bath and four 3/8 inch holes were drilled into the block. One cryosection quality control standard (CQCS) was prepared with a known amount of radioactivity and at least 1 ml aliquots were added to each of the four drilled holes. CQCS data were utilized to evaluate the overall performance of the QWBA assay.
Each frozen rat was sagittally trimmed (50–100 μm) at −20°C until exposure of a few target tissues employing a Leica Cryomacrocut heavy-duty microtome (Leica Microsystems Inc.,). Disposable stainless steel Feather type H45L knives (Feather Safety Razor Co., Ltd.) were utilized for trimming and sectioning each frozen rat. Several thinner sections (50 μm) were discarded prior to obtaining multiple 50 μm sections at various cryosectioning levels for QWBA analysis. Upon the collection of at least 60 target tissues in multiple cryosectioning levels, the cryosections were kept in the Cryomacrocut cryochamber for a minimum of 18 h for dehydration depending upon the number of cryosections within the cryochamber. After dehydration was complete, the cryosections were transferred to ambient temperature for processing. Mounted whole-body cryosections and a set of 15 standards were sandwiched between a standard phosphor screen and an exposure cassette. All cryosections were exposed to the phosphor screen for 4-days in a cabinet protected with lead prior to scanning using a Typhoon PhosphorImager (Cytiva). MCID™ Analysis software (InterFocus Ltd.) was utilized to generate a calibration curve of the STD nominal concentrations (nCi/g) versus PhosphorImager response (counts/μm^2 minus background) by weighted (1/x) linear regression analysis ([Potchoiba et al., 1995]; [Potchoiba et al., 1998]). The linear regression curve was then utilized to determine the concentration (nCi/g) of total radioactivity in whole-body tissues and blood. Radioactivity concentrations were expressed as μg Eq/g based on the specific activity of the compound in the final dose formulations. […]

[1] = 12 h post single oral 100 mg/kg

For `CC/C=C\C/C=C\C/C=C\C/C=C\C/C=C\C/C=C\CCC(=O)O[C@H](CO[14CH2]CCCCCCCCCCCCCCC)COC(=O)CCCCC1CCSS1` (stereo partly shown) [[^14C]PPI-1011], the “Blood:plasma concentration ratio” value (168 HPD, single dose) was 2.96, the “Radioactivity concentration, Adipose - Brown” value (8 h post single oral 100 mg/kg) was 171 μg equivalents/g and the “Radioactivity concentration, Adipose - Brown (Vessel Wall)” value (8 h post single oral 100 mg/kg) was 301 μg equivalents/g. For the same molecule, the “Radioactivity concentration, Adipose - Subcutaneous” value (8 h post single oral 100 mg/kg) was 74.0 μg equivalents/g, the “Radioactivity concentration, Adipose - Visceral” value (8 h post single oral 100 mg/kg) was 83.1 μg equivalents/g and the “Radioactivity concentration, Adrenal Gland” value (8 h post single oral 100 mg/kg) was 195 μg equivalents/g. For the same molecule, the “Radioactivity concentration, Bladder Wall” value (8 h post single oral 100 mg/kg) was 86.0 μg equivalents/g, the “Radioactivity concentration, Blood - QWBA” value (8 h post single oral 100 mg/kg) was 35.4 μg equivalents/g and the “Radioactivity concentration, Bone Marrow” value (8 h post single oral 100 mg/kg) was 23.5 μg equivalents/g. The “Radioactivity concentration, Bone Surface” value (8 h post single oral 100 mg/kg) was 2.30 μg equivalents/g, the “Radioactivity concentration, Cerebellum” value (8 h post single oral 100 mg/kg) was 2.70 μg equivalents/g and the “Radioactivity concentration, Cerebrum” value (8 h post single oral 100 mg/kg) was 2.39 μg equivalents/g. The “Radioactivity concentration, Choroid Plexus” value (8 h post single oral 100 mg/kg) was 14.9 μg equivalents/g, the “Radioactivity concentration, Colliculus” value (8 h post single oral 100 mg/kg) was 3.50 μg equivalents/g and the “Radioactivity concentration, Diaphragm” value (8 h post single oral 100 mg/kg) was 55.6 μg equivalents/g. For the same molecule, the “Radioactivity concentration, Epididymis” value (8 h post single oral 100 mg/kg) was 39.8 μg equivalents/g, the “Radioactivity concentration, Esophagus” value (8 h post single oral 100 mg/kg) was 17.4 μg equivalents/g and the “Radioactivity concentration, Exorbital Lacrimal Gland” value (8 h post single oral 100 mg/kg) was 28.7 μg equivalents/g. For the same molecule, the “Radioactivity concentration, Gastric Mucosa” value (8 h post single oral 100 mg/kg) was 91.2 μg equivalents/g, the “Radioactivity concentration, Harderian Gland” value (8 h post single oral 100 mg/kg) was 14.4 μg equivalents/g and the “Radioactivity concentration, Intra-Orbital Lacrimal Gland” value (8 h post single oral 100 mg/kg) was 10.4 μg equivalents/g. For the same molecule, the “Radioactivity concentration, Kidney” value (8 h post single oral 100 mg/kg) was 42.9 μg equivalents/g, the “Radioactivity concentration, Large Intestines” value (8 h post single oral 100 mg/kg) was 12.5 μg equivalents/g and the “Radioactivity concentration, Liver” value (8 h post single oral 100 mg/kg) was 313 μg equivalents/g. The “Radioactivity concentration, Lung” value (8 h post single oral 100 mg/kg) was 74.0 μg equivalents/g, the “Radioactivity concentration, Lymph Node” value (8 h post single oral 100 mg/kg) was 22.7 μg equivalents/g and the “Radioactivity concentration, Medulla Oblongata” value (8 h post single oral 100 mg/kg) was 2.40 μg equivalents/g. For the same molecule, the “Radioactivity concentration, Muscle” value (8 h post single oral 100 mg/kg) was 10.3 μg equivalents/g, the “Radioactivity concentration, Myocardium” value (8 h post single oral 100 mg/kg) was 92.0 μg equivalents/g and the “Radioactivity concentration, Nasal Turbinates” value (8 h post single oral 100 mg/kg) was 16.0 μg equivalents/g. The “Radioactivity concentration, Ocular - Uveal Tract” value (8 h post single oral 100 mg/kg) was 6.97 μg equivalents/g, the “Radioactivity concentration, Ocular - Whole Eye” value (8 h post single oral 100 mg/kg) was 1.83 μg equivalents/g and the “Radioactivity concentration, Olfactory Bulb” value (8 h post single oral 100 mg/kg) was 2.16 μg equivalents/g. For the same molecule, the “Radioactivity concentration, Pancreas” value (8 h post single oral 100 mg/kg) was 66.3 μg equivalents/g, the “Radioactivity concentration, Parotid Gland” value (8 h post single oral 100 mg/kg) was 39.1 μg equivalents/g and the “Radioactivity concentration, Pineal Gland” value (8 h post single oral 100 mg/kg) was 11.9 μg equivalents/g. For the same molecule, the “Radioactivity concentration, Pituitary Gland” value (8 h post single oral 100 mg/kg) was 21.2 μg equivalents/g, the “Radioactivity concentration, Preputial Gland” value (8 h post single oral 100 mg/kg) was 33.6 μg equivalents/g and the “Radioactivity concentration, Prostate” value (8 h post single oral 100 mg/kg) was 49.6 μg equivalents/g. The “Radioactivity concentration, Renal Cortex” value (8 h post single oral 100 mg/kg) was 41.4 μg equivalents/g, the “Radioactivity concentration, Renal Medulla” value (8 h post single oral 100 mg/kg) was 51.0 μg equivalents/g and the “Radioactivity concentration, Salivary Gland” value (8 h post single oral 100 mg/kg) was 53.3 μg equivalents/g. The “Radioactivity concentration, Seminal Vesicles” value (8 h post single oral 100 mg/kg) was 12.8 μg equivalents/g, the “Radioactivity concentration, Skin - Non-Pigmented” value (8 h post single oral 100 mg/kg) was 15.0 μg equivalents/g and the “Radioactivity concentration, Small Intestines” value (8 h post single oral 100 mg/kg) was 609 μg equivalents/g. For the same molecule, the “Radioactivity concentration, Spinal Cord” value (8 h post single oral 100 mg/kg) was 2.71 μg equivalents/g, the “Radioactivity concentration, Spleen” value (8 h post single oral 100 mg/kg) was 105 μg equivalents/g and the “Radioactivity concentration, Stomach” value (8 h post single oral 100 mg/kg) was 22.6 μg equivalents/g. The “Radioactivity concentration, Testis” value (8 h post single oral 100 mg/kg) was 2.65 μg equivalents/g, the “Radioactivity concentration, Thalamus” value (8 h post single oral 100 mg/kg) was 2.27 μg equivalents/g and the “Radioactivity concentration, Thymus” value (8 h post single oral 100 mg/kg) was 10.7 μg equivalents/g. For the same molecule, the “Radioactivity concentration, Thyroid” value (8 h post single oral 100 mg/kg) was 49.9 μg equivalents/g, the “Radioactivity concentration, Whole Brain” value (8 h post single oral 100 mg/kg) was 2.60 μg equivalents/g and the “Radioactivity concentration, Adipose - Brown” value [1] was 426 μg equivalents/g. The “Radioactivity concentration, Adipose - Brown (Vessel Wall)” value [1] was 383 μg equivalents/g, the “Radioactivity concentration, Adipose - Subcutaneous” value [1] was 242 μg equivalents/g and the “Radioactivity concentration, Adipose - Visceral” value [1] was 170 μg equivalents/g. For the same molecule, the “Radioactivity concentration, Adrenal Gland” value [1] was 367 μg equivalents/g, the “Radioactivity concentration, Bladder Wall” value [1] was 19.3 μg equivalents/g and the “Radioactivity concentration, Blood - QWBA” value [1] was 16.4 μg equivalents/g. The “Radioactivity concentration, Bone Marrow” value [1] was 23.0 μg equivalents/g, the “Radioactivity concentration, Bone Surface” value [1] was 1.15 μg equivalents/g and the “Radioactivity concentration, Cecum” value [1] was 450 μg equivalents/g. For the same molecule, the “Radioactivity concentration, Cerebellum” value [1] was 2.69 μg equivalents/g, the “Radioactivity concentration, Cerebrum” value [1] was 2.22 μg equivalents/g and the “Radioactivity concentration, Choroid Plexus” value [1] was 17.1 μg equivalents/g. The “Radioactivity concentration, Colliculus” value [1] was 3.03 μg equivalents/g, the “Radioactivity concentration, Diaphragm” value [1] was 59.9 μg equivalents/g and the “Radioactivity concentration, Epididymis” value [1] was 70.9 μg equivalents/g. For the same molecule, the “Radioactivity concentration, Esophagus” value [1] was 16.9 μg equivalents/g, the “Radioactivity concentration, Exorbital Lacrimal Gland” value [1] was 34.5 μg equivalents/g and the “Radioactivity concentration, Gastric Mucosa” value [1] was 67.8 μg equivalents/g. The “Radioactivity concentration, Harderian Gland” value [1] was 10.8 μg equivalents/g, the “Radioactivity concentration, Intra-Orbital Lacrimal Gland” value [1] was 8.89 μg equivalents/g and the “Radioactivity concentration, Kidney” value [1] was 45.3 μg equivalents/g. For the same molecule, the “Radioactivity concentration, Large Intestines” value [1] was 209 μg equivalents/g, the “Radioactivity concentration, Liver” value [1] was 269 μg equivalents/g and the “Radioactivity concentration, Lung” value [1] was 51.9 μg equivalents/g. For the same molecule, the “Radioactivity concentration, Lymph Node” value [1] was 22.6 μg equivalents/g, the “Radioactivity concentration, Medulla Oblongata” value [1] was 2.44 μg equivalents/g and the “Radioactivity concentration, Muscle” value [1] was 12.6 μg equivalents/g. For the same molecule, the “Radioactivity concentration, Myocardium” value [1] was 72.6 μg equivalents/g, the “Radioactivity concentration, Nasal Turbinates” value [1] was 10.6 μg equivalents/g and the “Radioactivity concentration, Ocular - Uveal Tract” value [1] was 6.57 μg equivalents/g. For the same molecule, the “Radioactivity concentration, Ocular - Whole Eye” value [1] was 2.03 μg equivalents/g.
